Where a SMILES comes first, the peptide text is derived from it.
Tests used:
[1] = tested on: guinea pig trachea; assay: Inhibition of the contraction of guinea pig trachea; assay type: cell-based; conditions: guinea pig tracheal rings
Description: The contraction of the guinea pig trachea was measured according to Br. J. Pharmacol. 98, 483, l989, by the following procedure.
Male guinea pigs weighing 350 - 500 g were stunned and bled. The trachea was rapidly removed and placed in an oxygenated (95% O₂ , 5% CO₂) Krebs solution. After removal of the adherent fat and connective tissues, the trachea was cut into 2 mm wide rings. The two rings were tied together, end to end, placed in a 30 ml organ bath and connected to an isometric force-transducer under an initial tension of 1.0 g.

[2] = biological target: T1, ETA receptor (Sus scrofa, UniProt Q29010)
T1 sequence (Q29010 21-427): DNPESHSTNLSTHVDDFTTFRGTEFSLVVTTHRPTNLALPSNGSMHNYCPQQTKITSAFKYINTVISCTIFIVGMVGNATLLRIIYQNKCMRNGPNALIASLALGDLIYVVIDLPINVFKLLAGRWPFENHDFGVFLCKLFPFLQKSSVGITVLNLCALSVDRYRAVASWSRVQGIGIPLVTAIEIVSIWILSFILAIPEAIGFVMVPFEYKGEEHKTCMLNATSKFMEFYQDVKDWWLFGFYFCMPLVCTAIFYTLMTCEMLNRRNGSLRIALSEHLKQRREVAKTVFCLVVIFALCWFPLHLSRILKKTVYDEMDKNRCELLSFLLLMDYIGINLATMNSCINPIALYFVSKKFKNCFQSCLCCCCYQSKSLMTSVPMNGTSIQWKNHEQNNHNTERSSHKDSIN
Description: Porcine lung was homogenized with a Kinematica Polytron homogenizer (Lucern, Switzerland) three times at top speed for each 30 sec in 9 volumes of ice-cold 0.25 M sucrose solution containing 20 mM Tris-HCl (pH 7.4), 0.2 mM phenylmethylsulfonyl fluoride, 1 µM leupeptin, 1 µM pepstatin, 0.1 mM EDTA, and 0.5 mM EGTA. After centrifugation of the homogenate at 1,000 x g for 10 min at 4°C, the supernatant was centrifuged again at 20,000 x g for 20 min. The resulting pellet was washed three times as described above and used as a membrane source. The membrane was stocked in aliquots at -80°C until use.
ET-3 in the absence and presence of various amounts of nonlabeled ligands in a total volume of 1 ml of 20 mM HEPES (pH 7), 145 mM NaCl, 5 mM KCl, 3 mM MgCl₂ , 1 mM EGTA, 1 mg/ml bovine serum albumin, and 0.2 mg/ml bacitracin. […] The radioactivity in membrane pellet was measured in a gamma counter. Nonspecific binding was defined as membrane-associated radioactivity in the presence of saturating concentrations of ET(l00 nM). […] Total binding was always less than l5% of the total radioactivity added.
The specific binding site for ETs in the plasma membrane of porcine lung was detected. The binding to the ETA receptor was determined with [¹²⁵I]ET-1 in the presence of 1 nM unlabeled ET-3 and the binding to the ETB receptor was determined with [¹²⁵I]ET-3 alone. […]

Ki [2] | SMILES | inhibition of ET-3-induced contraction of the trachea ([1]; 100 nM, added 5 min prior to the addition of ET-3) | contraction of the trachea ([1]; organ bath, high KCl (60 mM) as reference standard)
450 nM | CC[C@H](C)[C@H](NC(=O)[C@H](CC(=O)O)NC(=O)[C@H](CC(C)C)NC(=O)[C@H](Cc1c[nH]cn1)NC(=O)[C@H](C)NC(=O)[C@H](Cc1ccccc1)NC(=O)[C@H](Cc1ccc(O)cc1)NC(=O)[C@@H](NC(=O)[C@H](C)NC(=O)[C@H](CCC(=O)O)NC(=O)[C@H](CCCCN)NC(=O)[C@H](CC(=O)O)NC(C)=O)C(C)C)C(=O)N[C@H](C(=O)N[C@@H](Cc1c[nH]c2ccccc12)C(=O)O)[C@@H](C)CC [Compound (II)] (Ac-DKEAVYFAHLDIIW-OH) | significantly inhibited | 
 | CC[C@H](C)[C@H](NC(=O)[C@H](CC(=O)O)NC(=O)[C@H](CC(C)C)NC(=O)[C@H](Cc1c[nH]cn1)NC(=O)[C@@H]1CSSC[C@H](N)C(=O)N[C@@H]([C@@H](C)O)C(=O)N[C@H]2CSSC[C@H](NC(=O)[C@H](CCC(=O)O)NC(=O)[C@H](CCCCN)NC(=O)[C@H](CC(=O)O)NC(=O)[C@H](CCCCN)NC(=O)[C@H](Cc3ccc(O)cc3)NC(=O)[C@H]([C@@H](C)O)NC(=O)[C@H](Cc3ccccc3)NC2=O)C(=O)N[C@@H](C(C)C)C(=O)N[C@@H](Cc2ccc(O)cc2)C(=O)N[C@@H](Cc2ccc(O)cc2)C(=O)N1)C(=O)N[C@H](C(=O)N[C@@H](Cc1c[nH]c2ccccc12)C(=O)O)[C@@H](C)CC [ET-3, endothelin-3, reference compound] |  | caused a contraction of the trachea in a concentration dependent manner

— patent EP0548441A1, “Endothelin antagonists” (Japat Ltd, priority 1991, dated 1993)
